Test results taken from PubChem BioAssay (NCI).
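96-well plates; 48 h exposure; 5 concentrations. Endpoints by linear interpolation between flanking doses. Not reached: highest tested concentration assigned. GI50 marks 50% less growth. TGI: concentration producing complete growth inhibition.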

Assays:
Test in all cases: NCI anticancer screen, dose series, 48 h
UACC-62 melanoma = test system: UACC-62 melanoma
NCI-H23 lung = test system: NCI-H23 lung
NCI-H460 lung = test system: NCI-H460 lung
ACHN renal = test system: ACHN renal
SNB-19 CNS = test system: SNB-19 CNS
U251 CNS = test system: U251 CNS
NCI-H226 lung = test system: NCI-H226 lung
SN12C renal = test system: SN12C renal
DU-145 prostate = test system: DU-145 prostate
IGROV1 ovarian = test system: IGROV1 ovarian

Row | SMILES | GI50 (UACC-62 melanoma) [µM] | TGI (UACC-62 melanoma) [µM] | GI50 (NCI-H23 lung) [µM] | TGI (NCI-H23 lung) [µM] | GI50 (NCI-H460 lung) [µM] | TGI (NCI-H460 lung) [µM] | GI50 (ACHN renal) [µM] | TGI (ACHN renal) [µM] | GI50 (SNB-19 CNS) [µM] | TGI (SNB-19 CNS) [µM] | GI50 (U251 CNS) [µM] | TGI (U251 CNS) [µM] | GI50 (NCI-H226 lung) [µM] | TGI (NCI-H226 lung) [µM] | GI50 (SN12C renal) [µM] | TGI (SN12C renal) [µM] | GI50 (DU-145 prostate) [µM] | TGI (DU-145 prostate) [µM] | GI50 (IGROV1 ovarian) [µM] | TGI (IGROV1 ovarian) [µM]
1 | C=CCNc1cccc2c1C(=O)c1ccccc1C2(O)CC=C (centres undefined) | 10.6 | 24.4 | 18.2 | 45.7 | 56 | > 100 | 28.5 | 65.3 | 18.5 | 44.7 | 17.4 | 39.2 | 20.2 | 49.2 | 20.2 | 43 | 24.9 | 63 | 33.3 | > 100
2 | COc1ccc(-c2[nH]ncc2-c2cc(OC)c(OC)c(OC)c2)cc1 | < 0.01 | 22.5 | 0.0103 | 26.7 | < 0.01 | 1.3 | < 0.01 | > 42.9 | < 0.01 | > 100 | < 0.01 | 6.11 | < 0.0148 | 34.8 | – | > 81.8 | < 0.01 | 1.64 | < 0.01 | 7.73
3 | COc1ccc2c(c1)C(=O)c1c-2n(CCCCl)c(=O)c2cc(N(C)C)ccc12 | 41 | > 100 | > 100 | > 100 | 73 | > 100 | 36 | > 100 | 56.4 | > 100 | 23.1 | 84.2 | 54.7 | > 100 | 49.8 | > 100 | > 100 | > 100 | 33 | > 100
4 | CC1(C)CC[C@]2(C(=O)O)CC[C@]3(C)[C@H](CC[C@@H]4[C@@]5(C)CCC(=O)C(C)(C)[C@@H]5CC[C@]43C)[C@H]2[C@H]1OC(=O)C(F)(F)F | 6.66 | 20.3 | 11 | 28.6 | 7.65 | 29.7 | 13.3 | 26.1 | 13.8 | 27.9 | 12.4 | 26.2 | 13.5 | 34 | 11.5 | 24.8 | 14.1 | 34 | 18.9 | 40.5
5 | CN1CCN(c2cc(Nc3cc(C4CC4)[nH]n3)nc(Nc3ccc(CC(=O)NCc4cccc(F)c4)cc3)n2)CC1 | 1.62 | 16.2 | 1.05 | 9.74 | 0.536 | 3.68 | 2.01 | 10.6 | 2.25 | 23.4 | 0.978 | 5.24 | 0.534 | 10.9 | 0.756 | 14.4 | 2.03 | 11.5 | 0.237 | 2.97
6 | OC(C(=Nc1ccccc1)c1ccccc1)c1ccccc1 (centres undefined) | – | 15 | – | 40.4 | – | 34.3 | – | 31.5 | – | 31.6 | – | 15.6 | – | 34.1 | – | 25.3 | – | 21.7 | – | 51.7
7 | COP1(=S)OCC2CCC[C@@H]2O1 (some centres undefined) | – | > 100 | – | > 100 | – | > 100 | – | > 100 | – | > 100 | – | > 100 | – | > 100 | – | > 100 | – | > 100 | – | > 100
